These results are taken from BindingDB's records for doi:10.1016/j.bmcl.2005.09.022 (Bristol-Myers Squibb Pharmaceutical Research Institute, 2005).

This assay has as its target C-C chemokine receptor type 4 (Mus musculus) (UniProt P51680). Description: Inhibition of chemotaxis of murine CCR4 transfected L1.2 cells.

Sequence of C-C chemokine receptor type 4 (Mus musculus) (P51680 whole entry, looked up): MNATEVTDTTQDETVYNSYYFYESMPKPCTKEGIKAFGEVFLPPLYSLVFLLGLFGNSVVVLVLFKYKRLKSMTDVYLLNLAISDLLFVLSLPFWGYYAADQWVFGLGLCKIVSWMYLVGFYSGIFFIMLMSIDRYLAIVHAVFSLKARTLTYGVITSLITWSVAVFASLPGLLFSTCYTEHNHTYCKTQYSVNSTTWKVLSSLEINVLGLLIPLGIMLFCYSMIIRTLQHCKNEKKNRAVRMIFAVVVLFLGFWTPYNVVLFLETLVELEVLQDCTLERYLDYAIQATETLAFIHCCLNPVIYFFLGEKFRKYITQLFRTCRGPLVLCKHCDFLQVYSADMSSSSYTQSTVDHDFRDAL

Consider `O=C([C@H]1CCCCN1)N1CCN(c2nccc(NCc3ccc(Cl)cc3Cl)n2)CC1` [(R)-(4-(4-(2,4-dichlorobenzylamino)pyrimidin-2-yl)piperazin-1-yl)(piperidin-2-yl)methanone], for which half-maximal inhibition (IC50) required 380 nM.

The IC50 is the midpoint of a concentration-inhibition curve. A low value points to inhibition by little substance.
